Data taken from article PMC5354900, “Peptide-guided targeting of GPR55 for anti-cancer therapy” (Oncotarget, 2016).
Positions of bridges follow the written chain, without caps; N, C: chain ends. Residues, ends and D or L forms follow the SMILES beside them. *: point of attachment. FITC = O=C1OC2(c3ccc(O)cc3Oc3cc(O)ccc32)c2ccc(NC(=S)*)cc21; Ahx = NCCCCCC(=O)O

What was measured:
[1] = molecular target: T1, immunoprecipitated HA-GPR55 (Homo sapiens, UniProt Q9Y2T6); assay: FITC-peptide binding to immunoprecipitated HA-GPR55; details: FITC-P1 40 μg/ml (26.8 μM), 2 h at 37°C; three independent experiments in triplicate
T1 construct: expressed in transfected cells; host or cells: HeLa cells, transient transfection; anti-HA immunoprecipitate on beads
T1 sequence (Q9Y2T6 whole entry): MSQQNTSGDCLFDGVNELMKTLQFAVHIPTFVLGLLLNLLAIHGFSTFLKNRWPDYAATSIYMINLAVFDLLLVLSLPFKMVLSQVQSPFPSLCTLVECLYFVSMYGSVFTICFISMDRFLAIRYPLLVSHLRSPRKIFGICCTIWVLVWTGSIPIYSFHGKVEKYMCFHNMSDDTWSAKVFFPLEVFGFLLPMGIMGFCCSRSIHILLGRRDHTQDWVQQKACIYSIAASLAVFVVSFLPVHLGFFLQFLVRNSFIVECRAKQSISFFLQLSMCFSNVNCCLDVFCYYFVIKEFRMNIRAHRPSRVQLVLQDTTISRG

[2] = system: GPR55 (HeLa cells); assay: FITC-peptide binding to HeLa cells silenced for GPR55 (siRNA, shRNA) or re-expressing HA-GPR55 (FACS); parameters: species or system human; details: 40 μg/ml, 1 h at 37°C
Protocol: For transient interference of GPR55, HeLa cells were plated at 150,000 cells/6-well plate in growth medium without antibiotics, and 24 h later they were transfected with 75 pmol/well non-targeting #2 siRNA (siNT) or human GPR55-targeting siRNAs (D-00581-05) (siGPR55) (siGENOME, Dharmacon, Chicago, IL, USA), using Lipofectamine 2000, according to the manufacturer instructions. Twenty-four hours later, the cells were detached by trypsinization, plated again at 150,000 cells/6-well plate, and 10 h later they were re-transfected with siNT or with siGPR55. Forty-eight hours later, the cells were analyzed. For stable interference of GPR55, HeLa cells were transfected with 1.7 μg/well OmicsLink shRNA expression clone CSHCTR001-CU6 (shCtrl) or clone HSH022476-3-CU6 (shGPR55) from GeneCopoeia (Rockville, MD, USA), using Lipofectamine 2000, according to the manufacturer instructions. Forty-eight hours after transfection, HeLa clones stably expressing shRNAs were selected in growth medium containing 0.3 μg/ml puromycin.
Wild-type HeLa cells plated at a density of 150,000 cells/6-well plate, or cells stable interfered with shCtrl and shGPR55 plated at a density of 120,000 cells/6-well plate, or HeLa cells transiently interfered (48 h after the first interference) were washed twice with HBSS^++, and incubated with the indicated concentrations of the FITC-labeled peptides for the indicated times at 37°C in 1 ml HBSS^++ plus 0.1% fatty-acid-free BSA and 25 mM HEPES, pH 7.5. Then, the cells were washed twice with PBS plus 0.01% Tween-20, and once with PBS, and incubated for 5 min at 37°C with PBS with 2 mM EDTA, detached by scraping, and resuspended in PBS plus 3% BSA. Cell-associated FITC fluorescence was evaluated using FACS, after addition of 4 μg/ml propidium iodide, to exclude dead cells from the FACS gating. Fluorescence intensity was evaluated as % FITC-positive cells and mean fluorescence, recorded before (for peptide binding) and after (for peptide internalization) addition of 0.2% trypan blue to quench the fluorescence of the extracellular bound peptides.

[3] = system: HA-GPR55; assay: confocal co-localization of FITC-P1 with HA-GPR55 in HeLa cells; type: cell-based, human; details: 40 μg/ml (26.8 μM) FITC-P1, 1 h, live HeLa cells overexpressing HA-GPR55
Protocol: HEK293 or CHO cells were rinsed with PBS, fixed for 10 min at room temperature in 4% (v/v) paraformaldehyde, and permeabilized in 0.02% saponin, 0.5% BSA, and 50 mM ammonium chloride in PBS (blocking solution). Then, the cells were stained with an anti-HA antibody (1:1,000) for 1 h at room temperature for GPR55 visualization, followed by 30 min at room temperature with Alexa488- or Alexa568-conjugated anti-mouse secondary antibodies (1:800), with 33 nM Alexa546-labeled phalloidin (Life Technologies) for filamentous actin visualization, or 2 μg/ml Hoechst (Sigma) for nuclei staining, with all reagents diluted in blocking solution. Then, the cells were washed three times with PBS plus 0.02% Tween-20, and the coverslips were mounted and examined by confocal microscope (LSM 510; Zeiss, Germany), with images acquired using the ZEN 2.1 (black) program (Carl Zeiss Microscopy GmbH 1997-2015). For localization studies of FITC-P1 and GPR55 in live HeLa cells, the cells were incubated with an anti-HA antibody (1:1,000) in PBS plus 3% BSA for 1 h on ice, then washed with PBS, and incubated with an Alexa568-conjugated anti-mouse secondary antibody (1:800) in PBS plus 3% BSA for 45 min on ice. The cells were then incubated with FITC-P1 as reported, fixed for 10 min in 4% (v/v) paraformaldehyde, and examined by confocal microscopy, as above.

[4] = system: EHEB cells; assay: growth of EHEB cells (cell counting); type: cell-based, human; details: ML-191 0.5 μM, 96 h
Protocol: (§1) HEK293 cells were bought in 2012, from the American Type Culture Collection (ATCC catalogue number: CRL-11268), and were grown in monolayers in DMEM supplemented with 10% FBS, 2 mM L-glutamine, 100 U/ml penicillin, and 100 μg/ml streptomycin. HeLa cells were received from Dr. D. Corda, Institute of Protein Biochemistry, CNR, Naples, which were bought in 2006 from the European Collection of Cell Culture (ECACC catalog number: 93021013). Wild-type HeLa cells were maintained in MEM with 10% FBS, 2 mM L-glutamine, 100 U/ml penicillin, 100 μg/ml streptomycin, and nonessential amino acids (i.e., 100 μM glycine, L-alanine, L-asparagine, L-aspartic acid, L-glutamic acid, L-proline, L-serine). The HeLa clones were selected in the presence of 0.3 μg/ml puromycin. CHO cells were received from Dr. D. Corda, and were grown in DMEM supplemented with 10% FBS, 2 mM L-glutamine, 100 U/ml penicillin, 100 μg/ml streptomycin, and nonessential amino acids. EHEB cells are an Epstein-Barr-virus-immortalized cell line that was established from a chronic lymphocytic leukemia patient, and these were purchased from DSMZ (Deutsche Sammlung von Mikroorganismen und Zellkulturen GmbH, Braunschweig, Germany). DeFew cells are a non-Hodgkin lymphoma cell line, and these were obtained from Prof. G. Scala, ‘Magna Graecia’ University of Catanzaro [46–48]. Both of these human B-lymphoblastoid cell lines were maintained in RPMI 1640 with 10% heat-inactivated (30 min at 55°C) FBS, 2 mM L-glutamine, 100 U/ml penicillin, and 100 μg/ml streptomycin, and were routinely tested for BCR expression and anti-IgG stimulation, according to previous studies. All of the cells were grown in a humidified atmosphere of 5% CO2 and at 37°C return.
(§2) The EHEB cell growth rate was evaluated by cell counting. EHEB and DeFew cells were plated into 24-well plates in 400 μl growth medium at a density of 25,000 cells/ml. The cells were grown in the absence and presence of different agents, which were added immediately after cell plating and replenished every 24 h. Every 24 h, the cells were put through independent and blinded counts in triplicate, using a Neubauer cell-counting chamber. After 48 h, the cells were diluted 1:2 with fresh medium and 400 μl were transferred in a new 24-well for the following peptide additions. At 96 h, the cells were counted with 0.2% trypan blue, to determine cell viability.

[5] = system: DeFew cells; assay: growth of DeFew cells (cell counting); type: cell-based, human; details: ML-191 0.5 μM, 96 h
Protocol: as §1, §2

[6] = system: EHEB cells; assay: annexin-V staining of EHEB cells (FACS); type: cell-based, human; details: biotinylated P1 1 μg/ml alone or streptavidin-bound; ML-191 0.5 μM
Excerpt: In parallel, for analysis of apoptosis markers, 200,000 cells/sample were harvested, washed in PBS, stained with fluorescent annexin V using human annexin V-FITC kits (Bender MedSystems GmbH, Vienna, Austria), according to the manufacturer instructions, and analyzed by FACS.

CC(C)C[C@@H]1NC(=O)[C@H]([C@@H](C)O)NC(=O)[C@@H]2CCCN2C(=O)[C@H](CO)NC(=O)[C@H](CC(N)=O)NC(=O)[C@H](CCCCN)NC(=O)[C@H](CCCCN)NC(=O)[C@@H](NC(=O)CCCCCNC(=S)Nc2ccc3c(c2)C(=O)OC32c3ccc(O)cc3Oc3cc(O)ccc32)CSSC[C@@H](C(=O)O)NC1=O [FITC-P1] ({FITC-Ahx}-CKKNSPTLC-OH; disulfide 1-9; N-terminus and C-terminus assumed)
binding to glycosylated versus deglycosylated GPR55 [1]: bound equally to both glycosylated and deglycosylated GPR55-immunoprecipitates | decrease in binding, siGPR55 relative to siNT ([2]; 50% reduction in GPR55 expression, four independent experiments): 26% | less binding to shGPR55 HeLa clones relative to shCtrl ([2]; 90% decrease in GPR55 mRNA, three independent experiments): 34% | increase in binding on GPR55 re-expression in shGPR55 clones versus empty vector ([2]; three independent experiments): 25% | co-localization with GPR55 [3]: distributed at the membrane level, with evident spots of co-localization

Cc1ccc(C2(C(=O)N3CCC(n4nc(-c5ccccc5)oc4=O)CC3)CC2)cc1 [ML-191]
Cell counts/ml ([4]; replenished every 24 h, DMSO 801 ±18, means ±SEM, n = 4 in duplicate, p <0.01): 578 ±49 ×1,000 | Growth inhibition ([4]; relative to DMSO-treated cells): (28%) | Cell counts/ml ([5]; replenished every 24 h, DMSO 1053 ±41, means ±SEM, n = 4 in duplicate, p <0.01): 650 ±51 ×1,000 | Growth inhibition ([5]; relative to DMSO-treated cells): (38%) | annexin V cell decoration [6]: did not increase annexin V cell decoration, similar to ML-191
